The text below walks through data of ChEMBL document CHEMBL1201862, “PubChem BioAssay data set” (2004).

Test systems include ACHN; NCI-H23; M14; DLD-1; LXFL 529; HOP-18; SNB-78; M19-MEL; U-251; CAKI-1; NCI-H460; TK-10; SK-MEL-5; SR; DMS-273; XF498; NCI/ADR-RES; MCF7; PC-3; A498.
Holding throughout (test): DTP human tumour cell line panel, 48 h

Values joined by “and” are separate entries in the source; they are usually repeats but may differ in a detail not shown here. Equal entries are not always repeated.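 Tested at 5 concentrations; 48 h exposure; 96-well plates; endpoints linearly interpolated, else capped at highest concentration. The concentration for 50% growth inhibition is given as GI50.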 Active and inactive are the calls of the source. Rule as the data show it: active = GI50 up to about 1.1 µM and inactive = higher.

For orientation: GI50 means the concentration giving 50% growth inhibition. `Cc1ccc(NC(=O)CC/C(CC(=O)C(C)(C)C)=N/NC(=O)c2cc3ccccc3cc2O)cc1C`: the GI50 with ACHN was 31 µM (inactive); in the test on NCI-H23 it was 19.6 µM (inactive); with M14 it was 32.5 µM (inactive); in the test with DLD-1 it was 30 µM (inactive); in the test with LXFL 529 it was 35.2 µM (inactive); in the test on HOP-18, 32.1 µM (inactive). Besides, the GI50 was 60.5 µM (inactive) in the test on SNB-78; 39.4 µM (inactive) in the test on M19-MEL; 35.6 µM (inactive) with U-251; > 100 µM (inactive) with CAKI-1; 39.4 µM (inactive) in the test on NCI-H460.

As for `CCOC(=O)c1ncoc1[C@H]1COC(C)(C)O1`, the GI50 with ACHN, in the test with TK-10, with NCI-H23, with M14, in the test with DLD-1 and in the test with SK-MEL-5 was > 100 µM (inactive) in each case. For the same compound, the GI50 in the test on LXFL 529, with HOP-18, in the test with SNB-78, with SR, in the test on M19-MEL and in the test on DMS-273 was > 100 µM (inactive) throughout. In addition, the GI50 in the test with U-251, in the test with CAKI-1 and in the test with NCI-H460 was > 100 µM (inactive) in each case.

Consider `CCCCCCCCCCSCC(CO)NC(=O)/C=C/c1c(C)[nH]c(=O)[nH]c1=O` (configuration not stated), for which the concentration for 50% growth inhibition (GI50) is 519 nM (active) and 687 nM (active) with XF498; 1.44 µM (inactive) and 1.38 µM (inactive) in the test with DLD-1; 1.16 µM (inactive) and 1.36 µM (inactive) in the test with SK-MEL-5; > 50 µM (inactive) and > 42.8 µM (inactive) in the test with NCI/ADR-RES; 1.71 µM (inactive) and 1.9 µM (inactive) with SNB-78; 753 nM (active) and 1.17 µM (inactive) with MCF7. Also, the GI50 in the test with M19-MEL is 1.33 µM (inactive) and 1.06 µM (active); with U-251, 532 nM (active) and 355 nM (active); in the test on NCI-H460, 1.51 µM (inactive) and 1.76 µM (inactive).

In the case of `COc1ccc(C2=N/C(=C\c3ccccc3)C(=O)O2)cc1`, the GI50 in the test with ACHN was > 100 µM (inactive); in the test on TK-10, > 100 µM (inactive); with M14 it was > 100 µM (inactive); in the test with PC-3, > 100 µM (inactive); in the test with NCI/ADR-RES it was 16.7 µM (inactive); in the test with MCF7 it was > 100 µM (inactive). The figures for the GI50 in the test with SR, in the test on U-251 and with NCI-H460 were 17.3 µM (inactive), 62.7 µM (inactive) and > 100 µM (inactive), respectively.

Turning to `COc1cccc(N2C(=O)CSC2c2c[nH]c3ccccc23)c1` (configuration not stated), the GI50 in the test with TK-10, with NCI-H23, in the test with M14, in the test with PC-3, in the test with SK-MEL-5 and with MCF7 was > 100 µM (inactive) throughout. The GI50 in the test with SR, in the test with U-251 and with NCI-H460 was > 100 µM (inactive) each time.

Regarding `COc1cccc2c1C(=O)c1c(O)c3c(c(O)c1C2=O)CC(O)(C(C)=O)CC3O` (configuration not stated), the GI50 in the test with NCI-H23 is 4.88 µM (inactive); in the test with XF498, 537 nM (active); with DLD-1 it was 6.85 µM (inactive); with SK-MEL-5 it was 2.16 µM (inactive); with NCI/ADR-RES, 5.68 µM (inactive); in the test with HOP-18 it was 22.6 µM (inactive). In addition, the GI50 with SNB-78 is 9.18 µM (inactive); with MCF7, 1.01 µM (active); in the test with M19-MEL, 5.79 µM (inactive); in the test with DMS-273 it was 2.3 µM (inactive); with U-251, 4.03 µM (inactive); in the test with A498, 1 µM (active). For the same compound, the GI50 was 4.61 µM (inactive) with CAKI-1 and 1.56 µM (inactive) with NCI-H460.

On to `CN(C)C(=O)/C=C/c1c[nH]c(=O)[nH]c1=O`, for which the GI50 with NCI-H23, in the test on DLD-1, in the test with SK-MEL-5, in the test with NCI/ADR-RES, in the test with HOP-18 and in the test with MCF7 was > 500 µM (inactive) in each case. Further, the GI50 in the test on DMS-273, in the test with U-251, in the test with A498, in the test on CAKI-1 and in the test on NCI-H460 was > 500 µM (inactive) in each case.

In the case of `O=C1c2cc3c(cc2[C@@H]2C(O)[C@H]4O[C@H]4C4CCN1C42)OCO3` (some centres not stated), the GI50 is > 37.5 µM (inactive) with ACHN; > 37.5 µM (inactive) in the test with TK-10; > 37.5 µM (inactive) with M14; > 37500 nM (inactive) in the test with XF498; > 37.5 µM (inactive) in the test on LXFL 529; > 37.5 µM (inactive) with SR. For the same compound, the GI50 in the test on DMS-273 was > 37.5 µM (inactive); in the test with CAKI-1, 25.3 µM (inactive); in the test on NCI-H460, > 37.5 µM (inactive).
